Experiments:
[1] = tested on: ADAMTS5; conditions: reported zinc-chelating inhibitors; cited from earlier work
[2] = target: T1, ADAMTS4 (Homo sapiens, UniProt O75173); assay: QF peptide cleavage assay (peptidolytic activity); assay type: biochemical; conditions: compared to DMSO control
T1 construct: Human recombinant full-length FLAG-tagged ADAMTS4 and ADAMTS5 were expressed in HEK293T cells; FLAG; made in house; host or cells: HEK293T cells
T1 sequence (O75173 213-837): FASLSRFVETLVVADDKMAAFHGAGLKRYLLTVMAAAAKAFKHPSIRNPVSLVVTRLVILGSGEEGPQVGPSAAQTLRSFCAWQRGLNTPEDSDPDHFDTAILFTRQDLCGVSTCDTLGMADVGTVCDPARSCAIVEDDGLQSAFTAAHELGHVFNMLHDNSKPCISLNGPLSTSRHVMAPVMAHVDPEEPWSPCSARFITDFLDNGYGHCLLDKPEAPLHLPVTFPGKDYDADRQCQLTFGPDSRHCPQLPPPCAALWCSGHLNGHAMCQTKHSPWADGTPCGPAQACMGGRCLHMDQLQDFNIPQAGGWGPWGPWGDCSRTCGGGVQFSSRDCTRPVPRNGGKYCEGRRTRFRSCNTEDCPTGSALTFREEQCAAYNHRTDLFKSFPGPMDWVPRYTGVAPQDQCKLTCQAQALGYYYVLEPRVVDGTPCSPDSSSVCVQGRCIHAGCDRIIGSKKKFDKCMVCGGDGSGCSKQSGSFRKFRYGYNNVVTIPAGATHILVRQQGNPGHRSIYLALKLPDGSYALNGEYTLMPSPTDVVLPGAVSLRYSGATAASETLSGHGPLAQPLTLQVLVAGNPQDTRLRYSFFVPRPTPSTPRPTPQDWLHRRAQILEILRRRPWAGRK
Method: (§1) Human recombinant full-length FLAG-tagged ADAMTS4 and ADAMTS5 were expressed in HEK293T cells (Thermo Fisher Scientific) and purified by anti-FLAG immunoaffinity chromatography as before. Concentrations of active proteases were determined by active-site titrations with known concentrations of TIMP-3 (Bio-Techne, 973-TM-010), using QF peptides as substrates. V1-5GAG, a truncated version of versican V1 isoform comprising residues 21–694 and containing a C-terminal 6x His tag[67], was expressed in HE293T cells and purified by immobilized metal affinity chromatography as before.
QF peptide cleavage assays were conducted in TNC-B (50 mM Tris–HCl, pH 7.5, 150 mM NaCl, 10 mM CaCl2, and 0.02% NaN3) on a SpectraMax i3x Multi-Mode Platform (Molecular Devices, UK) in a total volume of 20 µl at 37℃ as before. ADAMTS4 (3.5 nM) or ADAMTS5 (4 nM) were incubated with compounds 1–4 (100 µM, diluted in TNC-B from 10 mM DMSO stocks) or DMSO for 1 h at 37 ℃ before addition of QF peptides fluorescein-5(6)-carbonyl-[…]N, N,N0,N0-tetramethyl-6-carboxyrhodamine, and fluorescein-5(6)-carbonyl-Thr-Glu-Ser-Glu - […]N, N,N0,N0-tetramethyl-6-carboxyrhodamine, respectively, each at 40 µM. Fluorescence intensity was recorded with an excitation wavelength of 485 nm and an emission wavelength of 535 nm every min for 2 h, expressed as relative fluorescence units and normalized against a blank containing only buffer and substrate. Fluorescence values were converted into residual activity by fixing as 100% the activity of the reactions containing an equal concentration (v/v) of DMSO instead of compound (DMSO control).

[3] = tested on: HEK293; design: method as in ChEMBL; conditions: ref ChEMBL, cited from earlier work; for EC50: read-out: EC50 (Standard Value)
[4] = tested on: HEK293T cells; assay: Cell viability MTS assay; assay type: cell-based, human; conditions: 100 µM; 72 h; vs DMSO control
Method: (§2) Cell viability was assessed using CellTiter® 96 Aqueous One Solution Cell Proliferation Assay (Promega, G3582) following the manufacturer’s protocol. The assay is based on the reduction of [3-(4,5-dimethylthiazol-2-yl)-5-(3-carboxymethoxyphenyl)-2-(4-sulfophenyl)-2 H-tetrazolium] (MTS) and phenazine ethosulfate into formazan. Compounds 2 and 4b, GM6001 (Merck, 364206) (10–100 µM), or DMSO control were incubated in 48-well Nunc™ plates (Thermo Fisher Scientific,150687) with HEK293T cells, human non-OA chondrocytes, porcine cartilage explants, or human OA cartilage explants for 72 h. At least 3 independent experiments were carried out with 3 technical replicates each. For experiments involving human samples, independent experiments were carried out on 3 different donors. Absorbance at 490 nm was measured on a SpectraMax i3x Multi-Mode Platform (Molecular Devices). Cell viability was normalized to DMSO controls.

[5] = tested on: human non-OA chondrocytes; assay: Cell viability MTS assay; assay type: cell-based; conditions: 100 µM; 72 h; vs DMSO control
Method: Non-OA human chondrocytes were isolated from knee cartilage tissues obtained from the Stanmore BioBank, Institute of Orthopaedics, Royal National Orthopaedic Hospital, Stanmore, UK, from 3 donors following informed consent and approval by the Royal Veterinary College Ethics and Welfare Committee (Institutional approval URN 2012 0048 H) as before.
as §2

[6] = tested on: porcine cartilage explants; assay: Cell viability MTS assay; assay type: cell-based, pig; conditions: 100 µM; 72 h; vs DMSO control
Method: Porcine articular cartilage from the joints of 3–9 month old pigs was supplied by a local abattoir within 2 h of slaughter and dissected into small pieces approximately 3 mm long and 3–4 mm wide. Each piece weighed roughly 10 mg. After dissection, the cartilage was allowed to acclimatize for 24 h at 37 °C under 5% CO2 in Dulbecco’s Modified Eagle Medium (DMEM) containing 100 U/ml penicillin, 100 µg/ml streptomycin, 10% fetal bovine serum (FBS).
as §2

[7] = target: T1, ADAMTS4; assay: Versicanase assay (V1-5GAG, versikine sandwich ELISA); assay type: biochemical; conditions: compared to DMSO control
Method: as §1
Compounds 1–4 (100 µM) or DMSO were incubated with ADAMTS4 (5 nM) or ADAMTS5 (0.4 nM) for 2 h at 37 °C, before addition of V1-5GAG (50 nM). At each time point, reactions were stopped by addition of ethylenediaminetetraacetic acid and ADAMTS-generated versican fragments (versikine) quantified by sandwich ELISA as before[29],[30],[38] using anti-DPEAAE neoepitope antibody (Life Technologies, PA1-1748 A, 5 µg/ml) and polyclonal anti-versican antibody (Abcam, ab171887, 3 µg/ml). For each reaction, the amount of versikine generated was derived from a standard curve (0–1.56 nM) of V1-5GAG completely digested with ADAMTS5. Initial velocities were calculated from the concentration of versikine generated as a function of reaction time. Percent of inhibition was calculated from the DMSO control reactions. IC50 values were determined using the formula: vi/v0 = 1/(1 + [I]/IC50) where vi is the initial velocity of substrate cleavage in the presence of the inhibitor at concentration [I] and v0 is the initial velocity in the presence of an equal concentration (v/v) of DMSO.

C=CCCNc1nc(NCc2csc(-c3cccs3)n2)nc(N2CCC[C@@H]2CNS(=O)(=O)c2ccc(CCC)cc2)n1 [C]
IC50 [1]: 0.03 µM

CCC(C)N(Cc1cn(CCCCCCO[C@@H]2O[C@H](CO)[C@@H](O)[C@H](O)[C@H]2NC(C)=O)nn1)S(=O)(=O)c1ccc(-c2ccccc2)cc1 (stereo partly drawn) [compound 1, N-((2R,3R,4R,5 S,6R)-2-((6-(4-((N-(sec-butyl)-[1,1’-biphenyl]-4-sulfonamido)methyl)-1H-1,2,3-triazol-1-yl)hexyl)oxy)-4,5-dihydroxy-6-(hydroxymethyl)tetrahydro-2 H-pyran-3-yl)acetamide]
inhibition at 100 µM [2]: 42%

O=C(/C=C/c1ccccc1)c1ccc(O)cc1O [CHEMBL105310]
IC50 ([3]; read-out: IC50 (Standard Value)): 109 µM

COc1cc(/C=C/C(=O)CC(=O)/C=C/c2ccc(O)c(O)c2)ccc1O [CHEMBL103410]
EC50 [3]: 36 µM

O=C(/C=C/c1ccc(O)cc1)CC(=O)/C=C/c1ccc(O)cc1 [CHEMBL105350]
EC50 [3]: 200 µM

CNC(=O)[C@H](Cc1c[nH]c2ccccc12)NC(=O)[C@@H](CC(=O)NO)CC(C)C [GM6001, reference compound]
inhibition of cell viability [4]: Neither 2, nor the broad-spectrum zinc-chelating metalloproteinase inhibitor GM6001[40] had an effect on cell viability | inhibition of cell viability [5]: No significant effect | decrease of cell viability [6]: did not exhibit cytotoxicity

C[C@H]1CN(C(=O)CC[C@@]2(C3CC3)NC(=O)NC2=O)CCN1c1cc(F)cc(F)c1 [B, GLPG 1972]
IC50 [1]: 0.019 µM

CC1C(NS(=O)(=O)N2CCc3c(nc4cc(F)ccn34)C2)(C(=O)O)C1(C)c1ccccc1 (centres unmarked) [A]
IC50 [1]: 0.0084 µM

CCC(C)N(Cc1cn(CCCO[C@@H]2O[C@H](CO[C@@H]3O[C@H](CO)[C@@H](O[C@@H]4O[C@H](CO)[C@H](O)[C@H](O)[C@H]4O)[C@H](O)[C@H]3O)[C@@H](O)[C@H](O)[C@H]2NC(C)=O)nn1)S(=O)(=O)c1ccc(-c2ccccc2)cc1 (stereo partly drawn) [compound 4, N-((2R,3R,4R,5 S,6R)-2-(3-(4-((N-(sec-butyl)-[1,1’-biphenyl]-4-sulfonamido)methyl)-1 H-1,2,3-triazol-1-yl)propoxy)-6-((((2R,3R,4R,5 S,6R)-3,4-dihydroxy-6-(hydroxymethyl)-5-(((2 S,3R,4 S,5R,6R)-3,4,5-trihydroxy-6-(hydroxymethyl)tetrahydro-2 H-pyran-2-yl)oxy)tetrahydro-2 H-pyran-2-yl)oxy)methyl)-4,5-dihydroxytetrahydro-2 H-pyran-3-yl)acetamide]
inhibition at 100 µM [7]: 64%

Reference: PMC12769565, “Design, synthesis and biological activity of glycoconjugated ADAMTS5 exosite inhibitors: applications in osteoarthritis and ovarian cancer models” (Scientific Reports, 2025)
